In ChEMBL document CHEMBL3853343, “Discovery of novel 2',4'-dimethyl-[4,5'-bithiazol]-2-yl amino derivatives as orally bioavailable TRPV4 antagonists for the treatment of pain: Part 2” (Bioorg Med Chem Lett, 2016):

Tests used:
Rattus norvegicus [1] = experiment: Analgesic activity in rat assessed as reversal of complete Freund's adjuvant-induced mechanical hyperalgesia at 10 mg/kg, po after 3 hrs relative to control; type: functional
[2] = Total clearance in rat at 0.5 mg/kg, iv; type: ADME, organism-based; details: in vivo
[3] = Plasma concentration in Dunkin-Hartley guinea pig complete Freund's adjuvant-induced mechanical hyperalgesia model at 10 mg/kg, po after 5 hrs; type: ADME, organism-based, Cavia porcellus
[4] = Half life in guinea pig at 1 mg/kg, iv; type: ADME, organism-based, Cavia porcellus; details: in vivo
[5] = Volume of distribution at steady state in guinea pig at 1 mg/kg, iv; type: ADME, organism-based, Cavia porcellus; details: in vivo, read-out: Vdss
[6] = Protein binding in rat; type: ADME; details: read-out: PB
[7] = Plasma concentration in Dunkin-Hartley guinea pig complete Freund's adjuvant-induced mechanical hyperalgesia model at 3 mg/kg, po after 5 hrs; type: ADME, organism-based, Cavia porcellus
[8] = Metabolic stability in guinea pig hepatocytes assessed as parent compound remaining after 1 hr; type: ADME, cell-based, Cavia porcellus, Hepatocyte; details: read-out: Stability
[9] = Oral bioavailability in guinea pig at 20 mg/kg; type: ADME, organism-based, Cavia porcellus; details: in vivo
[10] = Stability in human liver microsomes assessed as parent compound remaining after 30 mins in presence or absence of NADPH; type: ADME, microsome; details: read-out: Stability
Cytochrome P450 3A4 = Cytochrome P450 3A4 (Homo sapiens, UniProt P08684); experiment: Inhibition of CYP3A4 (unknown origin); type: ADME
[11] = Protein binding in human; type: ADME; details: read-out: PB
[12] = target: T1, Transient receptor potential cation channel subfamily V member 4 (Rattus norvegicus, UniProt Q9ERZ8); experiment: Antagonist activity at rat TRPV4 assessed as inhibition of 4alpha-PDD-induced activation
[13] = Stability in rat liver microsomes assessed as parent compound remaining after 30 mins in presence or absence of NADPH; type: ADME, microsome; details: read-out: Stability
[14] = Tmax in rat at 1 mg/kg, po; type: ADME, organism-based; details: in vivo
[15] = Tmax in guinea pig at 20 mg/kg, po; type: ADME, organism-based, Cavia porcellus; details: in vivo
[16] = Plasma concentration in Dunkin-Hartley guinea pig complete Freund's adjuvant-induced mechanical hyperalgesia model at 1 mg/kg, po after 5 hrs; type: ADME, organism-based, Cavia porcellus
[17] = Cmax in rat at 1 mg/kg, po; type: ADME, organism-based; parameters: dose 1 mg/kg, route oral; details: in vivo
Cytochrome P450 1A2 = target: T2, Cytochrome P450 1A2 (Homo sapiens, UniProt P05177); experiment: Inhibition of CYP1A2 (unknown origin); type: ADME
T2 sequence (P05177 whole entry): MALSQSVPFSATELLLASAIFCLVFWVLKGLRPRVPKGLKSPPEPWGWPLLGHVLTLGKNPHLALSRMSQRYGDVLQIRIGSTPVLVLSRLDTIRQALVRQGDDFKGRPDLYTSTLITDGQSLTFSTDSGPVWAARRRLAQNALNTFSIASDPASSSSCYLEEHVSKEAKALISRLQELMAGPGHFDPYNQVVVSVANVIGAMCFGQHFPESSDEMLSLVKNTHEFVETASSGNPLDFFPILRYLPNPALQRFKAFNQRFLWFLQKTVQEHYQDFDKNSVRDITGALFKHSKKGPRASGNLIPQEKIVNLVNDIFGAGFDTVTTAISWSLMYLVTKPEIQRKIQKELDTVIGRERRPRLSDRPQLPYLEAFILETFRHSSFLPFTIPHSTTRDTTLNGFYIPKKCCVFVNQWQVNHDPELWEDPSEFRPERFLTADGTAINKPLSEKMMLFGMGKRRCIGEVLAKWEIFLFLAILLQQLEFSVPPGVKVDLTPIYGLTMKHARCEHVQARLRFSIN

Rattus norvegicus [18] = experiment: Analgesic activity in rat assessed as reversal of complete Freund's adjuvant-induced mechanical hyperalgesia at 30 mg/kg, po after 5 hrs relative to control; type: functional
[19] = Volume of distribution at steady state in rat at 0.5 mg/kg, iv; type: ADME, organism-based; details: in vivo, read-out: Vdss
[20] = Total clearance in guinea pig at 1 mg/kg, iv; type: ADME, organism-based, Cavia porcellus; details: in vivo
Rattus norvegicus [21] = experiment: Analgesic activity in rat assessed as reversal of complete Freund's adjuvant-induced mechanical hyperalgesia at 10 mg/kg, po after 5 hrs relative to control; type: functional
Cytochrome P450 2C9 = Cytochrome P450 2C9 (Homo sapiens, UniProt P11712); experiment: Inhibition of CYP2C9 (unknown origin); type: ADME
[22] = Antagonist activity at guinea pig TRPV4 assessed as inhibition of 4alpha-PDD-induced activation; parameters: species or system Cavia porcellus
[23] = Half life in rat at 0.5 mg/kg, iv; type: ADME, organism-based; details: in vivo
[24] = Oral bioavailability in rat at 1 mg/kg; type: ADME, organism-based; details: in vivo
[25] = Metabolic stability in human hepatocytes assessed as parent compound remaining after 1 hr; type: ADME, cell-based, Hepatocyte; details: read-out: Stability
[26] = AUC in guinea pig at 20 mg/kg, po; type: ADME, organism-based, Cavia porcellus; details: in vivo
Rattus norvegicus [27] = experiment: Analgesic activity in rat assessed as reversal of complete Freund's adjuvant-induced mechanical hyperalgesia at 30 mg/kg, po after 1 hr relative to control; type: functional
[28] = Antagonist activity at guinea pig TRPV4 assessed as inhibition of hypotonicity-induced activation; parameters: species or system Cavia porcellus
[29] = AUC in rat at 1 mg/kg, po; type: ADME, organism-based; details: in vivo
Cytochrome P450 2D6 = Cytochrome P450 2D6 (Homo sapiens, UniProt P10635); experiment: Inhibition of CYP2D6 (unknown origin); type: ADME
[30] = Protein binding in guinea pig; type: ADME, Cavia porcellus; details: read-out: PB (converted)
Rattus norvegicus [31] = experiment: Analgesic activity in rat assessed as reversal of complete Freund's adjuvant-induced mechanical hyperalgesia at 30 mg/kg, po after 3 hrs relative to control; type: functional
Cavia porcellus [32] = experiment: Analgesic activity in Dunkin-Hartley guinea pig complete Freund's adjuvant-induced mechanical hyperalgesia model assessed as reversal in paw withdrawal threshold at 3 mg/kg, po after 5 hrs relative to control; type: functional
Cavia porcellus [33] = experiment: Analgesic activity in Dunkin-Hartley guinea pig complete Freund's adjuvant-induced mechanical hyperalgesia model assessed as reversal in paw withdrawal threshold at 1 mg/kg, po after 5 hrs relative to control; type: functional
Cavia porcellus [34] = experiment: Analgesic activity in Dunkin-Hartley guinea pig complete Freund's adjuvant-induced mechanical hyperalgesia model assessed as reversal in paw withdrawal threshold at 10 mg/kg, po after 5 hrs relative to control; type: functional
[35] = Metabolic stability in rat hepatocytes assessed as parent compound remaining after 1 hr; type: ADME, cell-based, Hepatocyte; details: read-out: Stability
[36] = Cmax in guinea pig at 20 mg/kg, po measured 12 hrs post dose; type: ADME, organism-based, Cavia porcellus; parameters: dose 20 mg/kg, route oral; details: in vivo
Salmonella typhimurium = experiment: Genotoxicity in Salmonella typhimurium by Ames test; type: toxicity, organism-based; details: salmonella enterica subsp. enterica serovar typhimurium
Rattus norvegicus [37] = experiment: Analgesic activity in rat assessed as reversal of complete Freund's adjuvant-induced mechanical hyperalgesia at 10 mg/kg, po after 1 hr relative to control; type: functional
[38] = target: T1, Transient receptor potential cation channel subfamily V member 4; experiment: Antagonist activity at rat TRPV4 assessed as inhibition of hypotonicity-induced activation
Cytochrome P450 2C19 = Cytochrome P450 2C19 (Homo sapiens, UniProt P33261); experiment: Inhibition of CYP2C19 (unknown origin); type: ADME
Sequence of Cytochrome P450 2C19 (P33261 whole entry): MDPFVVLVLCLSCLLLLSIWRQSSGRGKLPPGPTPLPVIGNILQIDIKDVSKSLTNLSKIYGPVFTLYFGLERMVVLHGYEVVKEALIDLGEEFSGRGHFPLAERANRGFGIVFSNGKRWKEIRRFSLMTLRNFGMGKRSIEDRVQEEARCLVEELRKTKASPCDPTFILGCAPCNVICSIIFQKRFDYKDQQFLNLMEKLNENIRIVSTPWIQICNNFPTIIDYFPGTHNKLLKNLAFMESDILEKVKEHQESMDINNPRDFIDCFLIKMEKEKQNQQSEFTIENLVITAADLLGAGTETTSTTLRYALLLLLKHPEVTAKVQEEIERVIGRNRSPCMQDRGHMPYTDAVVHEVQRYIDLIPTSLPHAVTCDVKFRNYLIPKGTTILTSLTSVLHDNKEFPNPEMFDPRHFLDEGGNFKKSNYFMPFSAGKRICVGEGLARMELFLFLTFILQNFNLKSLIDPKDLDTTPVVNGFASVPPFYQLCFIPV

T1 sequence (Q9ERZ8 whole entry): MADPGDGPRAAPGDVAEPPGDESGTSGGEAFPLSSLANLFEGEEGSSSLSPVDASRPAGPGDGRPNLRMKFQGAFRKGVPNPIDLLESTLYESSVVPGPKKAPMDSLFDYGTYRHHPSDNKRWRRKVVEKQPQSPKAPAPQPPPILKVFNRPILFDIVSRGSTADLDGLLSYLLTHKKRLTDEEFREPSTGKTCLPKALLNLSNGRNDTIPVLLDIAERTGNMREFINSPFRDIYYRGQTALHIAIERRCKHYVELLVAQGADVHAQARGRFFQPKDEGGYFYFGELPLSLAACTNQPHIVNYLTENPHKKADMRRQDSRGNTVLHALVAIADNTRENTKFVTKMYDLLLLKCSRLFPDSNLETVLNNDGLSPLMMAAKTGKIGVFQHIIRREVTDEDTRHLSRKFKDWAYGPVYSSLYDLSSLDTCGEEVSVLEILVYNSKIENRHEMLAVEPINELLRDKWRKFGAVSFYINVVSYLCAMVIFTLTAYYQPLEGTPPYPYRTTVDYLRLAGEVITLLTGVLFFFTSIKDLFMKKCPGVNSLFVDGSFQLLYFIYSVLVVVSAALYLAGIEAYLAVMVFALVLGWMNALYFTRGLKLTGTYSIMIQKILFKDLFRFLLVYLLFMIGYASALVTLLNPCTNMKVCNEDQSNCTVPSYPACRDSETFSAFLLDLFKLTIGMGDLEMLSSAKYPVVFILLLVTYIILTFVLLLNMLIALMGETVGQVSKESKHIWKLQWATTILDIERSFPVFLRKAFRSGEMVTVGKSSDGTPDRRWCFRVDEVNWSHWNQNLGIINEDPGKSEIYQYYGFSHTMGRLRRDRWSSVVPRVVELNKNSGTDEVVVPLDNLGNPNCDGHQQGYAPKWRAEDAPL
Sequence of Cytochrome P450 3A4 (P08684 whole entry): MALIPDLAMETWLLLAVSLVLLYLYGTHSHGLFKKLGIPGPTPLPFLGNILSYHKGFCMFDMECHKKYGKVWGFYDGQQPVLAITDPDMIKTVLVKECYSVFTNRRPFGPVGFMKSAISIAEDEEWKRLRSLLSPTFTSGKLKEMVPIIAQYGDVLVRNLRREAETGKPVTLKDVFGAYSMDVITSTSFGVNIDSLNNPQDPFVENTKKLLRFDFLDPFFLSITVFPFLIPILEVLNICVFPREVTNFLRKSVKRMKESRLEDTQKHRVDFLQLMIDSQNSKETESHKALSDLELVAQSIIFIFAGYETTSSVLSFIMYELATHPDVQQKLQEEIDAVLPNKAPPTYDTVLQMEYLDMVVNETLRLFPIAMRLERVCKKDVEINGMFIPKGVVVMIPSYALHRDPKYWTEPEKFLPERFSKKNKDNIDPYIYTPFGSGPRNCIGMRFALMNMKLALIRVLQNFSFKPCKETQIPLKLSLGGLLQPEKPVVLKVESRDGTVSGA
Sequence of Cytochrome P450 2C9 (P11712 whole entry): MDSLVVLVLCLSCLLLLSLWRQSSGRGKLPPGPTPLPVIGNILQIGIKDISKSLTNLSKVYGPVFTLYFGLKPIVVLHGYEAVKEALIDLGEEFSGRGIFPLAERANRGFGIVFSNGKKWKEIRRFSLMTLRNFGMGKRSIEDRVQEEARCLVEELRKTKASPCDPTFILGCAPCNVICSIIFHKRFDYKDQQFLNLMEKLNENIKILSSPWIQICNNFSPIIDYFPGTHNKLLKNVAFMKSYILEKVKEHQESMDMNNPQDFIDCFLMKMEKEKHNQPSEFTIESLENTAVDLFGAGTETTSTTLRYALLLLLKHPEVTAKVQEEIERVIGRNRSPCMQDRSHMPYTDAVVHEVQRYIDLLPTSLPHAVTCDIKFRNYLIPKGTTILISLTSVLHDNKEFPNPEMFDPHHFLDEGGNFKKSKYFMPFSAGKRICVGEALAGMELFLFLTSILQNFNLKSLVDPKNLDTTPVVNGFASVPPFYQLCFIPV
Sequence of Cytochrome P450 2D6 (P10635 whole entry): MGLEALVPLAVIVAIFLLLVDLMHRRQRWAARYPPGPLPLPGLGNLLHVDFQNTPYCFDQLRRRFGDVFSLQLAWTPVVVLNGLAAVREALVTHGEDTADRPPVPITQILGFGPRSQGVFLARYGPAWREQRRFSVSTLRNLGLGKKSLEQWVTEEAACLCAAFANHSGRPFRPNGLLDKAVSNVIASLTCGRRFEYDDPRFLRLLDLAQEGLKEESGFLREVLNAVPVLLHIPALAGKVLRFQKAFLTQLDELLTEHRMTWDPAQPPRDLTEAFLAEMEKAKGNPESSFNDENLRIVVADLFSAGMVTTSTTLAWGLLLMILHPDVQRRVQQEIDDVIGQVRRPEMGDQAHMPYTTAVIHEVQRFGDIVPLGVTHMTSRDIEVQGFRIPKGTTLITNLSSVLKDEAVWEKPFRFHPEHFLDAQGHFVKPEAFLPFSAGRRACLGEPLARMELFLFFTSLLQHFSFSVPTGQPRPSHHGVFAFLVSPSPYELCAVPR

With `Cc1nc(C)c(-c2csc(Nc3ccc(C(=O)N4C5CCC4CN(c4ncc(C(F)(F)F)cn4)C5)cn3)n2)s1` the Activity (Rattus norvegicus [1]) was 21.3%, the clearance [2] was 7.22 mL/min/kg and the concentration at 5 h [3] was 209 ng/mL. It also gave a half-life [4] of 4.2 h, a Vd [5] of 11 L/kg and a fraction unbound [6] of less than 0.001. The concentration at 5 h [7] was 69.4 ng/mL, the remaining at 1 h [8] was 73% and the bioavailability [9] was 44%. The remaining at 0.5 h [10] was 94.8%, the INH (Cytochrome P450 3A4) was greater than 20 µM and the fraction unbound [11] was less than 0.001. For the same molecule, the IC50 [12] was 8.6 nM, the remaining at 0.5 h [13] was 69.2% and the Tmax [14] was 4 h. It also gave a Tmax [15] of 12 h, a concentration at 5 h [16] of 21.2 ng/mL and a Cmax [17] of 55.2 ng/mL. The INH (Cytochrome P450 1A2) was greater than 20 µM, the Activity (Rattus norvegicus [18]) was 23.5% and the Vd [19] was 4.6 L/kg. It also gave a clearance [20] of 31.1 mL/min/kg, an Activity (Rattus norvegicus [21]) of 11% and an INH (Cytochrome P450 2C9) greater than 20 µM. It also gave an IC50 [22] of 0.9 nM, a half-life [23] of 8.1 h and a bioavailability [24] of 37.9%. The remaining at 1 h [25] was 91%, the AUC [26] was 4720 ng·h/mL and the Activity (Rattus norvegicus [27]) was 22%. For the same molecule, the IC50 [28] was 1.2 nM, the AUC [29] was 900 ng·h/mL and the INH (Cytochrome P450 2D6) was greater than 20 µM. The fraction unbound [30] was 0.003, the Activity (Rattus norvegicus [31]) was 29.7% and the Activity (Cavia porcellus [32]) was 30.6%. It also gave an Activity (Cavia porcellus [33]) of 15.6%, an Activity (Cavia porcellus [34]) of 43.4% and a remaining at 1 h [35] of 105%. The Cmax [36] was 256 ng/mL, the Activity (Salmonella typhimurium) was “Non-Toxic” and the Activity (Rattus norvegicus [37]) was 15.5%. It also gave an IC50 [38] of 2.1 nM and an INH (Cytochrome P450 2C19) greater than 20 µM.
